Source: patent publication US6683103B2, “Sulfonamides for treatment of endothelin-mediated disorders” (Texas Biotechnology Corporation, priority 1997, dated 2004)
Like-named read-outs stand apart in the source and are kept apart here.

Key:
human ETA receptors = biological target: T1, human ETA receptors (Homo sapiens, UniProt P25101); experiment: Binding Test #1: inhibition of 125I-ET-1 binding to ETA receptors (TE 671 cell membranes); conditions: read-out: ETA
T1 construct: endogenous in cells; host or cells: TE 671 cells (ATCC HTB 139)
T1 sequence (P25101 21-427): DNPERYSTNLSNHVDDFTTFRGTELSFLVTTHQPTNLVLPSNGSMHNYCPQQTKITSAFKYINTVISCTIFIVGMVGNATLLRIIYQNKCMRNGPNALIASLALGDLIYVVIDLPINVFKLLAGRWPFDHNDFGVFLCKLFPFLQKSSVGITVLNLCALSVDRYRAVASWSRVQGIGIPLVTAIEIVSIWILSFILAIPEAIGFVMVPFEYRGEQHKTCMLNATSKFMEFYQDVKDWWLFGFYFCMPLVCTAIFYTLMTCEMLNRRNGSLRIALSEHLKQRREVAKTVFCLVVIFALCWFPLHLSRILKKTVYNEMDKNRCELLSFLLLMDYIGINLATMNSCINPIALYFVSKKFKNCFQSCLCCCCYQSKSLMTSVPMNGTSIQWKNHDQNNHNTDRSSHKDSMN
Procedure, shortened: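 Radioligand competition in triplicate: ¹²⁵I-endothelin-1 displaced by test compound (1 nM–100 μM final) from ETA-bearing TE 671 cell membranes in HEPES pH 7.4 binding buffer with NaCl, MgCl2 and bacitracin. Incubation 16–18 h at 4 °C (or at 24 °C); 80 nM ET-1 defines nonspecific binding; pellet radioactivity gives percent inhibition.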

human ETB receptor = biological target: T2, human ETB receptor (Homo sapiens, UniProt P24530); experiment: Binding Test #2: inhibition of 125I-ET-1 binding to ETB receptors (transfected COS7 cell membranes)
T2 construct: expressed in transfected cells; host or cells: COS7 cells
T2 sequence (P24530 27-442): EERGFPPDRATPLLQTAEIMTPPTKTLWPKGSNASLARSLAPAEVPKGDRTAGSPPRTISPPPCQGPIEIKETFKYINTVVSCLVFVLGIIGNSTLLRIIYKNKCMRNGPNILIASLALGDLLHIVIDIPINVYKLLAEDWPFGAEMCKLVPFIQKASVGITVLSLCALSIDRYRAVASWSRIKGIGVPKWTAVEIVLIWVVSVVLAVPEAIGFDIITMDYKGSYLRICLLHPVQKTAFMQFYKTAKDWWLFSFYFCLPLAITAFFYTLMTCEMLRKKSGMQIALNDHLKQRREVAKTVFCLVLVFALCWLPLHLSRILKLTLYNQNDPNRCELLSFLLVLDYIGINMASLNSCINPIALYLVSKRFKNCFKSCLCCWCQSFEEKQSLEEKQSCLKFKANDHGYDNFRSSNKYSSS
Procedure, shortened: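 Competition with 125I-ET-1 for binding to membranes from COS7 cells transfected with human ETB receptor, used at 1 μg/50 μl binding buffer. Membranes prepared in HEPES pH 7.4 with aprotinin, including a DNase/MnCl2 step at 37 °C for 30 min.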

[1] = Table 1, † incubation at 24° C.
[2] = Table 1, † incubation at 24° C., read-out: ETB
[3] = Table 2, † incubation at 24° C.
[4] = Table 2, incubation at 4° C., read-out: ETB
[5] = Table 2, † incubation at 24° C., read-out: ETB
[6] = Table 1, incubation at 4° C., read-out: ETB

Cc1noc(NS(=O)(=O)c2ccsc2C(=O)OCCc2ccc3c(c2)OCO3)c1Cl [N-(4-chloro-3-methyl-5-isoxazolyl)-2-[2-(3,4-methylenedioxyphenyl)ethoxycarbonyl-3-sulfonamide]
IC50 (human ETA receptors; [1]): 0.23 µM
IC50 (human ETB receptor; [2]): 6.2 µM

N-(4-bromo-3-methyl-5-isoxazolyl)-4′-trifluorophenyl-4-biphenylsulfonamide
IC50 (human ETA receptors; Table 2, incubation at 4° C.): 5.4 ± 0.3 µM
IC50 (human ETA receptors; [3]): 25.9 ± 13.7 µM
IC50 (human ETB receptor; [4]): 0.083 ± 0.02 µM
IC50 (human ETB receptor; [5]): 0.71 ± 0.43 µM

N-(4-chloro-3-methyl-5-isoxazolyl)-2-[2-hyroxyproyl-4,5-(methylenedioxy)phenylaminocarbonyl]thiophene-3-sulfonamide
IC50 (human ETA receptors; [1]): 0.0073 µM
IC50 (human ETB receptor; [2]): 8.3 µM

Cc1noc(NS(=O)(=O)c2cc(Cl)sc2Cl)c1Br [N-(4-Bromo-3-methyl-5-isoxazolyl)-2,5-dichlorothiophene-3-sulfonamide]
IC50 (human ETA receptors; Table 1, incubation at 4° C.): ~0.39 µM
IC50 (human ETB receptor; [6]): 2.62 µM

N-(4-bromo-5-methyl-3-isoxazolyl)-5-(4-methylphenyl)thiophene-2-sulfonamide
IC50 (human ETA receptors; Table 1, incubation at 4° C.): 7.1 µM
IC50 (human ETA receptors; [1]): 15.8 µM
IC50 (human ETB receptor; [6]): 0.359 µM
IC50 (human ETB receptor; [2]): 0.25 µM

Cc1cc(C)c(NC(=O)c2sccc2S(=O)(=O)Nc2onc(C)c2Cl)c(C)c1 [N-(4-chloro-3-methyl-5-isoxazolyl)-2-(2,4,6-trimethylphenylaminocarbonyl)thiophene-3-sulfonamide]
IC50 (human ETA receptors; [1]): 0.000626 µM
IC50 (human ETB receptor; [2]): 8.27 µM

Cc1noc(NS(=O)(=O)c2ccsc2C(=O)Oc2ccc3c(c2)OCO3)c1C [N-(3,4-dimenthyl-5-isoxazolyl)-2-[3,4-(methylenedioxy)phenox] [N-(3,4-dimenthyl-5-isoxazolyl)-2-[3,4-(methylenedioxy)phenoxycarbonyl]thiophene-3-sulfonamide]
IC50 (human ETA receptors; [1]): 6.1 µM
IC50 (human ETB receptor; [2]): > 50 µM

N-(4-chloro-3-methyl-5-isoxazolyl)-2-[β-(dimethylamino)-3,4-(methylenedioxy)phenethyl]thiophene-3-sulfonamide
IC50 (human ETA receptors; [1]): 20.9 µM
IC50 (human ETB receptor; [2]): ~100 µM

Cc1noc(NS(=O)(=O)c2ccc(-c3ccccc3)cc2)c1Br [N-(4-bromo-3-methyl-5-isoxazolyl)-4-biphenylsulfonamide]
IC50 (human ETA receptors; Table 2, incubation at 4° C.): 3.3 µM
IC50 (human ETA receptors; [3]): 49 µM
IC50 (human ETB receptor; [4]): ~0.17 µM
IC50 (human ETB receptor; [5]): 1.23 µM

Cc1noc(NS(=O)(=O)c2cc(CCc3ccccc3)cs2)c1Br [N-(4-bromo-3-methyl-5-isoxazolyl)-4-(phenethyl)thiophene-2-sulfonamide]
IC50 (human ETA receptors; Table 1, incubation at 4° C.): 6.64 µM
IC50 (human ETB receptor; [6]): 3.97 µM

Cc1onc(NS(=O)(=O)c2ccc(-c3ccccc3)cc2)c1Br [N-(4-bromo-5-methyl-3-isoxazolyl)-4-biphenylsulfonamide]
IC50 (human ETA receptors; Table 2, incubation at 4° C.): 6.4 ± 2 µM
IC50 (human ETA receptors; [3]): 49 µM
IC50 (human ETB receptor; [4]): 0.29 ± 0.02 µM
IC50 (human ETB receptor; [5]): 1.78 µM

N-(4-bromo-3-methyl-5-isoxazolyl)-3′,4′-methylenedioxyphenyl-4-biphenylsulfonamide
IC50 (human ETA receptors; [3]): 38.2 ± 4.95 µM
IC50 (human ETB receptor; [5]): 3 ± 0.78 µM

N-(4-chloro-3-methyl-5-isoxazolyl)-2-[2-methyl-4,5-(methylenedioxy)phenylhydroxyimino]thiophene-3-sulfonamide
IC50 (human ETA receptors; [1]): 0.794 µM
IC50 (human ETB receptor; [2]): 6.49 µM

Cc1noc(NS(=O)(=O)c2ccc(S(=O)(=O)c3ccccc3)s2)c1Br [N-(4-Bromo-3-methyl-5-isoxazolyl)-5-benzenesulfonylthiophene-2-sulfonamide]
IC50 (human ETA receptors; Table 1, incubation at 4° C.): 0.57 µM
IC50 (human ETB receptor; [6]): 0.333 µM

Cc1noc(NS(=O)(=O)c2ccc(-c3ccc(C(F)(F)F)cc3)s2)c1Br [N-(4-bromo-3-methyl-5-isoxazolyl)-5-[4-(trifluoromethyl)phenyl]thiophene-2-sulfonamide]
IC50 (human ETA receptors; Table 1, incubation at 4° C.): 6.39 µM
IC50 (human ETA receptors; [1]): 6.31 µM
IC50 (human ETB receptor; [6]): 0.0835 µM
IC50 (human ETB receptor; [2]): 0.282 µM

Cc1cc2c(cc1C=CCc1sccc1S(=O)(=O)Nc1onc(C)c1Br)OCO2 [N-(4-bromo-3-methyl-5-isoxazolyl)-2-[2-methyl-4,5-(methylenedioxy)cinnamyl]thiophene-3-sulfonamide]
IC50 (human ETA receptors; [1]): 0.0804 µM
IC50 (human ETB receptor; [2]): 3.28 µM

CCCc1cc2c(cc1OCc1ccsc1S(=O)(=O)Nc1onc(C)c1Br)OCO2 [N-(4-bromo-3-methyl-5-isoxazolyl)-3-{[2-propyl-4,5-(methylenedioxy)phenoxy]methyl}thiophene-2-sulfonamide]
IC50 (human ETA receptors; [1]): ~0.2 µM
IC50 (human ETB receptor; [2]): 1.5 µM

Cc1noc(NS(=O)(=O)c2cccc(-c3ccccc3)c2)c1C [N-(3,4-dimethyl-5-isoxazolyl)-3-biphenylsulfonamide]
IC50 (human ETA receptors; Table 2, incubation at 4° C.): > 0.03 µM
IC50 (human ETB receptor; [4]): 3.48 µM
IC50 (human ETB receptor; read-out: IC50 for ETB receptors): ~3.48 µM

CCc1ccc(NC(=O)c2sccc2S(=O)(=O)Nc2onc(C)c2Br)cc1 [N-(4-Bromo-3-methyl-5-isoxazolyl)-2-[N-(4-ethylphenyl)aminocarbonyl]thiophene-3-sulfonamide]
IC50 (human ETA receptors; Table 1, incubation at 4° C.): 0.0016 µM
IC50 (human ETB receptor; [6]): 0.849 µM

Cc1noc(NS(=O)(=O)c2sccc2Oc2ccccc2)c1Br [N-(4-bromo-3-methyl-5-isoxazolyl)-3-phenoxythiophene-2-sulfonamide]
IC50 (human ETA receptors; Table 1, incubation at 4° C.): 0.103 µM
IC50 (human ETB receptor; [6]): 3.46 µM

Cc1noc(NS(=O)(=O)c2ccsc2C(=O)NC(=O)c2ccc3c(c2)OCO3)c1Br [N-(4-bromo-3-methyl-5-isoxazolyl)-2-[(3,4-methylenedioxy)benzoyl]aminocarbonyl]thiophene-3-sulfonamide]
IC50 (human ETA receptors; [1]): 0.089 µM
IC50 (human ETB receptor; [2]): 37 µM

Cc1noc(NS(=O)(=O)c2ccsc2COc2ccc3c(c2)OCO3)c1Br [N-(4-bromo-3-methyl-5-isoxazolyl)-2-{[3,4-(methylenedioxy)phenoxy]methyl}thiophene-3-sulfonamide]
IC50 (human ETA receptors; [1]): 0.302 µM
IC50 (human ETB receptor; [2]): 6.61 µM

Cc1noc(NS(=O)(=O)c2c(C)sc3ccccc23)c1Br [N-(4-bromo-3-methyl-5-isoxazolyl)-2-methylbenzo[b]thiophene-3-sulfonamide]
IC50 (human ETA receptors; Table 1, incubation at 4° C.): 0.0486 µM
IC50 (human ETB receptor; [6]): 3.5 µM

Cc1noc(NS(=O)(=O)c2sccc2CCc2ccc3c(c2)OCO3)c1Br [N-(4-bromo-3-methyl-5-isoxazolyl)-3-[3,4-(methylenedioxy)phenethyl]thiophene-2-sulfonamide]
IC50 (human ETA receptors; [1]): 0.236 µM
IC50 (human ETB receptor; [2]): 18 µM

Cc1noc(NS(=O)(=O)c2ccc(-c3ccc(C(=O)O)cc3)s2)c1Br [N-(4-bromo-3-methyl-5-isoxazolyl)-5-(4-carboxyphenyl)thiophene-2-sulfonamide]
IC50 (human ETA receptors; [1]): > 100 µM
IC50 (human ETB receptor; [2]): 31 µM

Cc1noc(NS(=O)(=O)c2sccc2-c2ccc3c(c2)OCO3)c1Br [N-(4-bromo-3-methyl-5-isoxazolyl)-3-[(3,4-methylenedioxy)phenyl]thiophene-2-sulfonamide]
IC50 (human ETA receptors; [1]): 0.5 µM
IC50 (human ETB receptor; [2]): 79 µM

Cc1noc(NS(=O)(=O)c2ccc(-c3ccccc3)s2)c1C [N-(3,4-dimethyl-5-isoxazolyl-5-phenylthiophen-2-sulfonamide]
IC50 (human ETA receptors; Table 1, incubation at 4° C.): 2.55 µM
IC50 (human ETB receptor; [6]): 1.29 µM

N-2-[3,4-(methylenedioxy)phenylacetyl]thiophene-3-sulfonamide
IC50 (human ETA receptors; [1]): 1.8 µM
IC50 (human ETB receptor; [2]): 32.5 µM

N-(4-bromo-3-methyl-5-isoxazolyl)-4′-methoxyphenyl-4-biphenylsulfonamide
IC50 (human ETA receptors; Table 2, incubation at 4° C.): 14.7 ± 5.6 µM
IC50 (human ETA receptors; [3]): 122 ± 2.12 µM
IC50 (human ETB receptor; [4]): 1.15 ± 0.44 µM

Cc1noc(NS(=O)(=O)c2c(Cl)sc(Cl)c2Br)c1Br [N-(4-Bromo-3-methyl-5-isoxazolyl)-4-bromo-2,5-dichlorothiophene-3-sulfonamide]
IC50 (human ETA receptors; Table 1, incubation at 4° C.): ~0.28 µM
IC50 (human ETB receptor; [6]): 10.4 µM

Cc1onc(NS(=O)(=O)c2ccc(-c3ccccc3)cc2)c1Cl [N-(4-chloro-5-methyl-3-isoxazolyl)-4-biphenylsulfonamide]
IC50 (human ETA receptors; Table 2, incubation at 4° C.): 3.7 µM
IC50 (human ETA receptors; [3]): 18.6 µM
IC50 (human ETB receptor; [4]): 0.23 ± 0.01 µM
IC50 (human ETB receptor; [5]): 1.29 µM

CCc1sc2ccc(C)cc2c1S(=O)(=O)Nc1onc(C)c1Br [N-(4-bromo-3-methyl-5-isoxazolyl)-2-ethyl-5-methylbenzo[b]thiophene-3-sulfonamide]
IC50 (human ETA receptors; [1]): 1.89 ± 0.431 µM
IC50 (human ETB receptor; [2]): 54.3 ± 2.6 µM

CCCc1sc2ccccc2c1S(=O)(=O)Nc1onc(C)c1Br [N-(4-bromo-3-methyl-5-isoxazolyl)-2-n-propylbenzo[b]thiophene-3-sulfonamide]
IC50 (human ETA receptors; Table 1, incubation at 4° C.): 0.024 µM
IC50 (human ETA receptors; [1]): 0.074 µM
IC50 (human ETB receptor; [6]): 7.95 µM
IC50 (human ETB receptor; [2]): 16.6 µM
